Here are results for 18 compounds from patent publication US8592410B2, “Cyclic inhibitors of 11BETA-hydroxysteroid dehydrogenase 1” (Vitae Pharmaceuticals, Inc., priority 2008, dated 2013).

Series [1] concerns the target T1, CYP2C9 (Homo sapiens (Human), UniProt P11712). The series can be described thus: Biological Test Example 9: CYP2C9 Inhibition (Invitrogen kit, OOMR fluorogenic substrate). The settings on record: read-out: Biological Test Example 9 CYP2C9 IC50.
For series [2], the target named is human recombinant cytochrome P450 3A4 (Homo sapiens (Human), UniProt P08684). Put plainly: Biological Test Example 6: CYP3A4 Inhibition. Format: in vitro ADME.
Series [3] deals with T2, human recombinant cytochrome P450 2C19 (Homo sapiens (Human), UniProt P33261). Put plainly: Biological Test Example 8: CYP2C19 Inhibition. The settings on record: read-out: Biological Test Example 8 CYP2C19, IC50.
Series [4] deals with T3, human recombinant cytochrome P450 2C9 (Homo sapiens (Human), UniProt P11712). The series can be described thus: Biological Test Example 7: CYP2C9 Inhibition (Naproxen O-demethylation). The note with it: read-out: Biological Test Example 7 CYP2C9, IC50; [O-methyl-14C]-Naproxen substrate.
Series [5] in a line: Biological Test Example 5: Fraction Unbound in Human Plasma (equilibrium dialysis). Format: in vitro ADME. On the technique in general: In equilibrium dialysis only unbound substance equilibrates across the membrane.
Series [6] has as its target T3, human recombinant cytochrome P450 2C9.
In series [7] the target is T2, human recombinant cytochrome P450 2C19.
In series [8] the target is T1, CYP2C9. The note with it: pH 8.
Series [9] has as its target T1, CYP2C9. Put plainly: in vitro.
Series [10] concerns the target T2, human recombinant cytochrome P450 2C19. Put plainly: biochemical.
For series [11], the target named is 11β-HSD1 (human liver microsomes) (Homo sapiens (Human), UniProt P28845). The settings on record: read-out: Average % control inhibition at 100 nM.
[12] abbreviates: read-out: Biological Test Example 6 CYP3A4, IC50.

Molecules are shown by their SMILES. Where two headings read alike, the source gives them in different places.

T2 sequence (P33261 whole entry): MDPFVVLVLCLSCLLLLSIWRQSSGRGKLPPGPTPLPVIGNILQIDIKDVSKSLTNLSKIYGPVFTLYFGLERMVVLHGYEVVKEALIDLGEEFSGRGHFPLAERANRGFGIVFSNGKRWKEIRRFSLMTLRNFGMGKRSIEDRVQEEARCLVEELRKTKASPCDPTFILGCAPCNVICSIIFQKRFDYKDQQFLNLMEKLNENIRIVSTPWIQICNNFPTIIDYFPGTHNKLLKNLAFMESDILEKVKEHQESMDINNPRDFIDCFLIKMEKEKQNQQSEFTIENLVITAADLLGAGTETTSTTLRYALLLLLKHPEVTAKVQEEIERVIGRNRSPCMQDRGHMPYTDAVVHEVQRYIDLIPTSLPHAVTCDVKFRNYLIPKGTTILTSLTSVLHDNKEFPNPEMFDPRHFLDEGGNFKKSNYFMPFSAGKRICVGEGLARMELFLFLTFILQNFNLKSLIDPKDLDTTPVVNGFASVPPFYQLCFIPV
T3 sequence (P11712 whole entry): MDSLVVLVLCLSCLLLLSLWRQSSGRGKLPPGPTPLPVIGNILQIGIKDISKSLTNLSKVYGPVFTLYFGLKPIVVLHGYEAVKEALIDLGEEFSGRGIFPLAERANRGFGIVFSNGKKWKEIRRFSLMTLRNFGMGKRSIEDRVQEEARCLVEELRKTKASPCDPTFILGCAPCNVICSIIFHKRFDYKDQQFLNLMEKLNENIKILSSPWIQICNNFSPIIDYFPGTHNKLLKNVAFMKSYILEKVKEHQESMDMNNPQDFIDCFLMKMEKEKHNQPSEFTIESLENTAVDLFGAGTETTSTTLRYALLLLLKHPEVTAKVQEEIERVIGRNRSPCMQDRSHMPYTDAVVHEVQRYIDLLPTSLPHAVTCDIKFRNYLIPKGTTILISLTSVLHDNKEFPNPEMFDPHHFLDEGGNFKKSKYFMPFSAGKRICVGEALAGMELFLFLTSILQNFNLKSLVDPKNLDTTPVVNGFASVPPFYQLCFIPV
T1 sequence (P11712 whole entry): as above
human recombinant cytochrome P450 3A4, sequence (P08684 whole entry): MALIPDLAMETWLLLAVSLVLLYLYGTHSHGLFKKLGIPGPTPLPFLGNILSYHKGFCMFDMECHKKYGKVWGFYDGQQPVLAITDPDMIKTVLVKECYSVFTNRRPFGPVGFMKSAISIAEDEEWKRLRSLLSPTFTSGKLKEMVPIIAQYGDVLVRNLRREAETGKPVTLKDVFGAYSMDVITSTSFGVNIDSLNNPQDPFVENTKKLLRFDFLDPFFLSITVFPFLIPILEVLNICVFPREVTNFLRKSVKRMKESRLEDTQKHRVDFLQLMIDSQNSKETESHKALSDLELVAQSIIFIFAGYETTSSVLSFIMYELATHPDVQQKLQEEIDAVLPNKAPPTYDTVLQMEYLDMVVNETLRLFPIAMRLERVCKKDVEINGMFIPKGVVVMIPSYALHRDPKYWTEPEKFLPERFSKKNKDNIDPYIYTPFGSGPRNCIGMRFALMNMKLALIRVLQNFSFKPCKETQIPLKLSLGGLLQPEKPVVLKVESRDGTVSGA
11β-HSD1 (human liver microsomes), sequence (P28845 whole entry): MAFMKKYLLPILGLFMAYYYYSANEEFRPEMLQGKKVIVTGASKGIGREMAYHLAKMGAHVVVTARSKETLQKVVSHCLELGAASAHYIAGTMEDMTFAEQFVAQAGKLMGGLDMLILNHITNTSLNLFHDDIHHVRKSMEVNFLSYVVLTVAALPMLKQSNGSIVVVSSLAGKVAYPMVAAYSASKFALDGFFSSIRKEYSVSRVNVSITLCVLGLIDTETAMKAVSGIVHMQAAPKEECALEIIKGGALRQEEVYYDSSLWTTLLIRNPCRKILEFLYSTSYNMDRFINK

A word on the IC50: it is the concentration that gives 50% inhibition. In the case of `O=C1O[C@@](CCO)(c2ccccc2)CCN1c1cccc(-c2ccc(F)cc2F)c1` [Comparator Compound 1], on CYP2C9 [1], the IC50 stood at 27 µM.

With `O=C1OC(CCO)(c2ccccc2F)CCN1c1cccc(-c2ccc(F)cc2F)n1` (stereo not drawn) [Comparator Compound 2], the IC50 at CYP2C9 [1] was 1.4 µM.

As to `O=C1O[C@@](CCO)(c2ccccc2)CCN1c1cccc(-c2ccc(F)cc2)n1` [Comparator Compound 4], the IC50 on CYP2C9 [1] stood at 5.1 µM.

Regarding `C[C@@H](c1ccc(-c2ccc(F)cc2F)cc1)N1CC[C@](CC(C)(C)O)(c2ccc(F)cc2)OC1=O` [Comparator Compound 6, reference compound], the IC50 in series [2] (setting [12]) amounted to 4.4 µM; in series [3], 8.6 µM; in series [4], 2.3 µM; on CYP2C9 [1], 5 µM.

By fraction unbound is commonly meant free concentration divided by total concentration. In turn, `C[C@@H](c1ccc(-c2ccc(F)cc2)cc1)N1CC[C@](CCC(N)=O)(c2ccccc2)OC1=O` [Comparator Compound 11, reference compound] showed a fraction unbound in series [5] of 0.007. The concentration for half-maximal inhibition (IC50) in series [2] (setting [12]) was 14.1 µM.

Compound `C[C@@H](c1ccc(-c2ccc(F)cc2)cc1)N1CC[C@](CC(C)(C)O)(c2ccccc2)OC1=O` [Comparator Compound 12, reference compound] gave a fraction unbound in series [5] of 0.004. Besides, in series [2] (setting [12]), the IC50 was 4.9 µM.

As for `C[C@@H](c1ccc(Br)cc1)N1CC[C@](CC(C)(C)O)(c2ccc(F)cc2)OC1=O` [Comparator Compound 13, reference compound], the IC50 was 4.4 µM in [2] (setting [12]), under 0.4 µM in series [3], 5.6 µM in [4] and 7.3 µM at CYP2C9 [1].

With `C[C@@H](c1ccc(OC(F)F)cc1)N1CC[C@](CCO)(c2ccc(F)cc2)OC1=O` [Comparator Compound 14, reference compound], the IC50 in series [2] (setting [12]) amounted to 19.7 µM; in series [6] it was 25.9 µM; in [7] it was 6.4 µM; against CYP2C9 [8] it was 24.6 µM.

On to `C[C@@H](c1ccc(Br)cc1)N1CC[C@](CC(C)(C)O)(c2ccccc2)OC1=O` [Comparator Compound 15, reference compound], for which the IC50 in series [2] (setting [12]) was 3.1 µM; in series [6], 7.7 µM; in series [7], under 0.4 µM; at CYP2C9 [8], 9.5 µM.

In turn, `C[C@@H](c1ccc(-c2ccc(=O)n(C)n2)cc1)N1CC[C@](CCCO)(c2ccc(F)cc2)OC1=O` [Example 10, (R)-6-(4-fluorophenyl)-6-(3-hydroxypropyl)-3-((S)-1-(4-(1-methyl-6-oxo-1,6-dihydropyridazin-3-yl)phenyl)ethyl)-1,3-oxazinan-2-one] returned an IC50 against CYP2C9 [8] of 14.2 µM.

`C[C@@H](c1ccc(-c2ccc(=O)n(C)n2)cc1)N1CC[C@](CC(C)(C)O)(c2ccccc2)OC1=O` [Example 12, (S)-6-(2-hydroxy-2-methylpropyl)-3-((S)-1-(4-(1-methyl-6-oxo-1,6-dihydropyridazin-3-yl)phenyl)ethyl)-6-phenyl-1,3-oxazinan-2-one]: the fraction unbound in [5] turned out to be 0.022. Moreover, the IC50 (against CYP2C9 [9]; in series [10]) was over 50 µM in each case.

For `C[C@@H](c1ccc(-c2ccc(=O)n(C)n2)cc1)N1CC[C@](CC(C)(C)O)(c2ccc(F)cc2)OC1=O` [Example 13, (S)-6-(4-fluorophenyl)-6-(2-hydroxy-2-methylpropyl)-3-((S)-1-(4-(1-methyl-6-oxo-1,6-dihydropyridazin-3-yl)phenyl)ethyl)-1,3-oxazinan-2-one], the IC50 in series [2] (setting [12]), in series [6] and in [7] was over 50 µM each time.

With `CCn1nc(-c2ccc([C@H](C)N3CC[C@](CC(C)(C)O)(c4ccccc4)OC3=O)cc2)ccc1=O` [Example 14, (S)-3-((S)-1-(4-(1-ethyl-6-oxo-1,6-dihydropyridazin-3-yl)phenyl)ethyl)-6-(2-hydroxy-2-methylpropyl)-6-phenyl-1,3-oxazinan-2-one], the half-inhibitory concentration (IC50) in series [2] (human) was 32.7 µM; in series [6], over 50 µM; in series [7] it was 46.3 µM.

As to `C[C@@H](c1ccc(-c2ccc(=O)n(CC(F)(F)F)n2)cc1)N1CC[C@](CC(C)(C)O)(c2ccccc2)OC1=O` [Example 16, (S)-6-(2-hydroxy-2-methylpropyl)-3-((S)-1-(4-(6-oxo-1-(2,2,2-trifluoroethyl)-1,6-dihydropyridazin-3-yl)phenyl)ethyl)-6-phenyl-1,3-oxazinan-2-one], the values for the IC50 in series [2] (setting [12]), in series [6] and in series [7] were 15.6 µM, 13 µM and 18.9 µM, respectively.

Regarding `Cc1cc(-c2ccc([C@H](C)N3CC[C@](CC(C)(C)O)(c4ccccc4)OC3=O)cc2)nn(C)c1=O` [Example 17*, 3-{(S)-1-[4-(1,5-Dimethyl-6-oxo-1,6-dihydro-pyridazin-3-yl)-phenyl]-ethyl}-(S)-6-(2-hydroxy-2-methyl-propyl)-6-phenyl-[1,3]oxazinan-2-one], the values for the IC50 in series [2] (setting [12]), in series [3] and in series [4] were 31 µM, over 50 µM and over 50 µM, respectively.

One may read the inhibition as the share of the control response that was lost under treatment. Turning to `Cc1cc(=O)n(C)nc1-c1ccc([C@H](C)N2CC[C@](CC(C)(C)O)(c3ccccc3)OC2=O)cc1` [Example 18*, 3-{(S)-1-[4-(1,4-Dimethyl-6-oxo-1,6-dihydro-pyridazin-3-yl)-phenyl]-ethyl}-(S)-6-(2-hydroxy-2-methyl-propyl)-6-phenyl-[1,3]oxazinan-2-one], the IC50 in series [2] (human), in series [3] and in series [4] was over 50 µM throughout. Further, the inhibition at 0.1 µM in [11] was found to be 63%.

Take `C[C@@H](c1ccc(-c2ccc(=O)n(CC3CC3)n2)cc1)N1CC[C@](CC(C)(C)O)(c2ccccc2)OC1=O` [Example 19*, 3-{(S)-1-[4-(1-Cyclopropylmethyl-6-oxo-1,6-dihydro-pyridazin-3-yl)-phenyl]-ethyl}-(S)-6-(2-hydroxy-2-methyl-propyl)-6-phenyl-[1,3]oxazinan-2-one]: the figures for the half-maximal inhibitory concentration (IC50) in series [2] (human) and in series [7] were 5.7 µM and 5.4 µM, respectively.

As to `C[C@@H](c1ccc(-c2ccc(=O)n(C3CC3)n2)cc1)N1CC[C@](CC(C)(C)O)(c2ccccc2)OC1=O` [Example 20*, 3-{(S)-1-[4-(1-Cyclopropyl-6-oxo-1,6-dihydro-pyridazin-3-yl)-phenyl]-ethyl}-(S)-6-(2-hydroxy-2-methyl-propyl)-6-phenyl-[1,3]oxazinan-2-one], the results for the IC50 in series [2] (setting [12]), in series [3] and in series [4] were 15.7 µM, 13.1 µM and 28.8 µM, respectively.
